Values of other authors in US20100075916A1, “SUBSTITUTED QUINAZOLINE INHIBITORS OF GROWTH FACTOR RECEPTOR TYROSINE KINASES” (AUSPEX PHARMACEUTICALS, INC., priority 2008, published 2010).

Columns and labels:
[1] = humans
[2] = vandetanib administration

elimination halflife [1]: approximately 120 hours
volume of distribution [1]: large volume of distribution
lag time before the drug is detectable in plasma ([1]; after oral administration): 0.801 h
Ka (absorption) ([1]; oral administration): 0.476 h⁻¹
SMILES: COc1cc2c(Nc3ccc(Br)cc3F)ncnc2cc1OCC1CCN(C)CC1 [Vandetanib, N-(4-bromo-2-fluoro-phenyl)-6-methoxy-7-[(1-methyl-4-piperidyl)methoxy]quinazolin-4-amine]
common side effects [2]: rash, diarrhea, QTc prolongation, hypertension, and neutropenia
